# Literature values in US12090156B2, “Application of CB-839 in preparation of drug for inhibiting corneal neovascularization (CNV)” (Institute of Ophthalmology Affiliated to Shandong First …, priority 2022, dated 2024).
# Test system: cancer cell lines such as triple-negative breast cancer (TNBC), lung adenocarcinoma, chondrosarcoma, and lymphoma cell lines
smiles,measurement,value
O=C(Cc1cccc(OC(F)(F)F)c1)Nc1ccc(CCCCc2nnc(NC(=O)Cc3ccccn3)s2)nn1 [CB-839],antiproliferative activity,significant antiproliferative activity
